{
  "source": "patent US20160120858A1",
  "about": "(ACADEMIA SINICA, priority 2014, published 2016)",
  "key": {"[1]": {"tested_on": "Tbr1^+/− mice", "assay": "Three-chamber social interaction assay, Tbr1 mice", "format": "in vivo, mouse", "settings": "30 mg/kg, 3 hours before test", "text": "All mice were backcrossed into a C57BL/6 background, and housed and bred in a mouse vivarium at the Korea Advanced Institute of Science and Technology (KAIST, Shank2^−/−mice) and at Academia Sinica (Tbr1^+/− mice). Pups were kept with the dam until weaning at postnatal day 21. After weaning, animals were group housed in mixed-genotype groups of 3 to 5 mice per cages, and randomly subjected to electrophysiological and behavioral experiments. Animals at 3 to 5 weeks of age were used for electrophysiological experiments; male animals at 2 to 4 months of age were used for behavioral assays. For TFL-Zn staining, male animals at 8 weeks (for Shank2^−/−mice) were used. Wild-type littermates were used as controls.\nThe injection was performed 2 hours before (Shank2^−/− mice and wild-type littermates), or 3 hours before (Tbr1^+/− mice and wild-type littermates) behavioral assays at the discretion of the facility.\nTesting was conducted in dedicated behavioral test rooms during the light phase (three-chamber test) and the dark phase (repetitive behaviors and open field test).\nIn short, the assay consisted of three phases of 10 minutes duration: habituation, social interaction (Stranger1 vs. Object), and social novelty recognition (Stranger 1 vs. Stranger 2). Exploration was defined as each instance in which wild-type or mutant mouse tries to sniff Object/Stranger, or orients its nose towards and come close to object/stranger. Individual movement tracks were analyzed by Ethovision 10.0 (Noldus) and modified by custom-designed software MatLab (Mathworks) to generate heat maps. Time spent in exploration was analyzed by the researcher who was blinded to the subject genotype (in Shank2 mice), or by using the Smart Video Tracking System (Panlab, in Tbr1 mice). In addition to exploration time, the preference index, which represents a numerical difference between time spent exploring the targets (Stranger1 vs. Object, or Stranger 2 vs. Stranger 1) divided by total time spent exploring both targets, as described previously."}, "[2]": {"tested_on": "Shank2^−/− mice", "assay": "Open field test", "format": "in vivo, mouse", "settings": "30 mg/kg i.p.; for Locomotor activity (hyperactivity, excessive action) / Time spent in the center region (anxiety-like behavior): 30 mg/kg", "protocol": "The injection was performed 2 hours before (Shank2^−/− mice and wild-type littermates), or 3 hours before (Tbr1^+/− mice and wild-type littermates) behavioral assays at the discretion of the facility. A within-subjects design was designed with a one week washout period (FIG. 8), and divided animals into two groups, vehicle-first and clioquinol-first group, to rule out carryover effects. Each mouse received a single acute dose of vehicle or clioquinol, and underwent a single behavioral task, one task per week. Testing was conducted in dedicated behavioral test rooms during the light phase (three-chamber test) and the dark phase (repetitive behaviors and open field test). The size of the open field box was 40×40×40 cm, and the center zone line was 13.3 cm apart from the edge. Mice were placed in the center in the beginning of the test, and mouse movements were recorded with a video camera for 60 minutes, and analyzed by Ethovision 10.0 (Noldus)."}, "[3]": {"tested_on": "hippocampal SC-CA1 synapses", "assay": "Tetanus-induced LTP (fEPSP), hippocampal slices", "format": "cell-based, mouse", "settings": "4 uM", "protocol": "For electrophysiological experiments, sagittal hippocampal slices (400 uM thick for extracellular, 300 uM thick for intracellular recordings) of Shank2^-/- mice (or ZnT3^-/- mice) and their wild-type littermates were prepared using a vibratome (Leica VT1200) in ice-cold dissection buffer containing (in mM) 212 sucrose, 25 NaHCO3, 5 KCl, 1.25 NaH2PO4, 0.5 CaCl2, 3.5 MgSO4, 10 D-glucose, 1.25 L-ascorbic acid, and 2 Na-pyruvate bubbled with 95% 02/5% CO2. CA3 was removed to prevent epileptiform activity. Slices were restored for 1 hour in 32° C. in a normal artificial CSF (ACSF) (In units of mM: 124 NaCl, 2.5 kCl, 1 NaH2PO4, 25 NaHCO3, 10 glucose, 2 CaC12, 2 Mg504 oxidized by 95% 02/5% CO2) For the recording, a single slice was moved to and maintained in submerged-type chamber at 28° C., continuously perfused with ACSF (2 mL/minute) saturated with 95% 02/5% CO2. Stimulation and recording pipettes were pulled from borosilicate glass capillaries (Harvard Apparatus) using a micropipette electrode puller ([…]). For extracellular recordings, mouse hippocampal slices at the age of postnatal day 21 to 35 were used. Field excitatory postsynaptic potentials (fEPSPs) were recorded in the stratum radiatum of the hippocampal CA1 region using pipettes filled with ACSF (1 MΩ). fEPSP was amplified (Multiclamp 700B, Molecular Devices), and digitized (Digidata 1440A, Molecular Devices) for measurements. The Schaffer collateral pathway was stimulated every 20 seconds with pipettes filled with ACSF (0.3 to 0.5 MΩ). The stimulation intensity was adjusted to yield a half-maximal response, and three successive responses were averaged and expressed relative to the normalized baseline. To induce LTP, high frequency stimulation (100 Hz, 1 s) was applied after a stable baseline was acquired."}, "[4]": {"tested_on": "Shank2^−/− mice", "assay": "Repetitive behaviors (jumping, grooming) in home cage", "format": "in vivo, mouse", "settings": "30 mg/kg i.p.; for Grooming / Jumping: Shank2^−/− mice, 2 hours prior to testing; for Repetitive behaviors: wild-type mice", "protocol": "The injection was performed 2 hours before (Shank2^−/− mice and wild-type littermates), or 3 hours before (Tbr1^+/− mice and wild-type littermates) behavioral assays at the discretion of the facility. A within-subjects design was designed with a one week washout period (FIG. 8), and divided animals into two groups, vehicle-first and clioquinol-first group, to rule out carryover effects. Each mouse received a single acute dose of vehicle or clioquinol, and underwent a single behavioral task, one task per week. Testing was conducted in dedicated behavioral test rooms during the light phase (three-chamber test) and the dark phase (repetitive behaviors and open field test). Shank2^−/− mice and their wild-type littermates in their home cages without bedding were used to measure times spent in repetitive behaviors including jumping and grooming. In this case, jumping is defined as mice planting rear feet and standing up by lifting front feet along the cage, in other words, the cage corner or a side wall, and jumping up such that both of the rear feed are separated from the bottom surface. Meanwhile, grooming is defined as stroking or scratching the face or the body with two front feet or licking a part of the body. The experiments and analysis were performed independently in a blind manner."}},
  "note": "“Also recorded” adds a separate entry of the source.",
  "data": [
    {"smiles": "Oc1c(I)cc(Cl)c2cccnc12", "note": "[clioquinol, 5-Chloro-7-Iodo-8-Hydroxyquinoline]", "values": [
      {"measurement": "Social novelty recognition", "setting": "[1]; Tbr1^+/− (HT) mice", "value": "had no effect on social novelty recognition"},
      {"measurement": "Social novelty recognition", "setting": "[1]; Tbr1^+/− (HT) mice, listed as CQ", "value": "fails to enhance social novelty recognition; also recorded: has no effect on social novelty recognition"},
      {"measurement": "Social novelty recognition", "setting": "[1]; wild-type mice", "value": "had no effect on social novelty recognition"},
      {"measurement": "Social novelty recognition", "setting": "[1]; wild-type mice, listed as CQ", "value": "has no effect"},
      {"measurement": "Locomotor activity (hyperactivity, excessive action)", "setting": "[2]; Shank2^−/− mice", "value": "did not weaken"},
      {"measurement": "Time spent in the center region (anxiety-like behavior)", "setting": "[2]; Shank2^−/− mice", "value": "had no effect on the center-region time"},
      {"measurement": "Time spent in the center region (anxiety-like behavior)", "setting": "[2]; Shank2^−/− mice, listed as CQ", "value": "has no effect on the time spent in the center region"},
      {"measurement": "Locomotor activity (hyperactivity, excessive action)", "setting": "[2]; Shank2^−/− mice, listed as Clioquinol", "value": "did not improve excessive action"},
      {"measurement": "Locomotor behavior", "setting": "[2]; wild-type mice", "value": "had no effect"},
      {"measurement": "Time spent in the center region (anxiety-like behavior)", "setting": "[2]; wild-type mice, listed as CQ", "value": "has no effect on the time spent in the center region"},
      {"measurement": "Time spent in the center region (anxiety-like behavior)", "setting": "[2]; wild-type mice, listed as Clioquinol", "value": "had no effect"},
      {"measurement": "Tetanus (100 Hz)-induced LTP", "setting": "[3]; Shank2^−/− SC-CA1 synapses", "value": "reversed the reduced tetanus-induced long-term potentiation"},
      {"measurement": "Tetanus (100 Hz)-induced LTP", "setting": "[3]; Shank2^−/− SC-CA1 synapses, listed as CQ", "value": "restored LTP"},
      {"measurement": "Tetanus (100 Hz)-induced LTP", "setting": "[3]; wild-type synapses", "value": "had no effect on LTP"},
      {"measurement": "Grooming", "setting": "[4]", "value": "not influenced"},
      {"measurement": "Jumping", "setting": "[4]", "value": "not influenced"},
      {"measurement": "Grooming", "setting": "[4]; listed as CQ", "value": "has no effect on grooming"},
      {"measurement": "Jumping", "setting": "[4]; listed as CQ", "value": "fails to improve jumping"},
      {"measurement": "Grooming", "setting": "[4]; listed as Clioquinol", "value": "had no effect"},
      {"measurement": "Jumping", "setting": "[4]; listed as Clioquinol", "value": "had no effect"},
      {"measurement": "Repetitive behaviors", "setting": "[4]", "value": "did not affect repetitive behaviors"},
      {"measurement": "Repetitive behaviors", "setting": "[4]; listed as Clioquinol", "value": "had no effect"}
    ]}
  ]
}
